This passage reports Kd results from paper PMC9973260, “Emergence of an Auxin Sensing Domain in Plant-Associated Bacteria” (mBio, 2023).

For experiment [1], the target named is T1, AdmX-LBD (Serratia plymuthica, UniProt P0DV33, C100S).
T1 construct: fast monomer-dimer equilibrium shifted toward dimer, dimer in crystal
T1 sequence (P0DV33 69-295 C100S): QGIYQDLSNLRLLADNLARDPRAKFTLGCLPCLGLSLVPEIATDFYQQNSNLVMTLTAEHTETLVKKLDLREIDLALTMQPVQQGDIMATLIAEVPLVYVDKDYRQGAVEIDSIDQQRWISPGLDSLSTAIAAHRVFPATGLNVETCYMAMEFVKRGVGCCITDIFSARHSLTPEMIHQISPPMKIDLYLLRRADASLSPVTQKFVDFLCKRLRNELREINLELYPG
Briefly: isothermal titration calorimetry. The experiment is classed as binding. The following applies: read-out: dissociation constant.

For experiment [2], the target named is T2, AdmX-LBD (Serratia plymuthica, UniProt P0DV33, E213Q).
T2 construct: fast monomer-dimer equilibrium shifted toward dimer, dimer in crystal
T2 sequence (P0DV33 69-295 E213Q): T1 sequence (P0DV33 69-295 C100S)
Nature of the experiment: isothermal titration calorimetry. Format: binding. The note with it: read-out: dissociation constant. A general note: ITC needs no label: the signal is the heat of the interaction.

For `O=C(O)Cc1c[nH]c2ccccc12` [indole-3-acetic acid], the Kd at AdmX-LBD [1] was determined as 51 ± 3.4 µM; at AdmX-LBD [2], 23.9 ± 2.4 µM.
Turning to `O=C(O)C(=O)Cc1c[nH]c2ccccc12` [indole-3-pyruvic acid], the figures for the Kd at AdmX-LBD [1] and at AdmX-LBD [2] were 31.5 ± 1.6 µM and 6 ± 0.7 µM, respectively.
